In PubChem BioAssay (NCI):
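Dose response: 5 concentrations. Exposure: 48 h. Format: 96-well plates. Endpoint: linear interpolation; highest concentration if not reached. TGI is the concentration that stops growth completely.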

What was measured:
Assay in all cases: NCI anticancer screen, dose series, 48 h
786-0 renal = tested on: 786-0 renal
A498 renal = tested on: A498 renal
A549 NSCLC = tested on: A549 NSCLC
ACHN renal = tested on: ACHN renal
BT-549 breast = tested on: BT-549 breast
CAKI-1 renal = tested on: CAKI-1 renal
CCRF-CEM leukemia = tested on: CCRF-CEM leukemia
COLO 205 colon = tested on: COLO 205 colon
DU-145 prostate = tested on: DU-145 prostate
EKVX NSCLC = tested on: EKVX NSCLC
HCC-2998 colon = tested on: HCC-2998 colon
HCT-116 colon = tested on: HCT-116 colon
HCT-15 colon = tested on: HCT-15 colon
HL-60(TB) leukemia = tested on: HL-60(TB) leukemia
HOP-62 NSCLC = tested on: HOP-62 NSCLC
HS 578T breast = tested on: HS 578T breast
HT29 colon = tested on: HT29 colon
IGROV1 ovarian = tested on: IGROV1 ovarian
K-562 leukemia = tested on: K-562 leukemia
KM12 colon = tested on: KM12 colon
LOX IMVI melanoma = tested on: LOX IMVI melanoma
M14 melanoma = tested on: M14 melanoma
MALME-3M melanoma = tested on: MALME-3M melanoma
MCF7 breast = tested on: MCF7 breast
MDA-MB-231 breast = tested on: MDA-MB-231 breast
MDA-MB-435 = tested on: MDA-MB-435
MDA-N = tested on: MDA-N
MOLT-4 leukemia = tested on: MOLT-4 leukemia
NCI-H226 lung = tested on: NCI-H226 lung
NCI-H23 lung = tested on: NCI-H23 lung
NCI-H460 lung = tested on: NCI-H460 lung
NCI-H522 lung = tested on: NCI-H522 lung
NCI/ADR-RES ovarian = tested on: NCI/ADR-RES ovarian
OVCAR-3 ovarian = tested on: OVCAR-3 ovarian
OVCAR-4 ovarian = tested on: OVCAR-4 ovarian
OVCAR-5 ovarian = tested on: OVCAR-5 ovarian
OVCAR-8 ovarian = tested on: OVCAR-8 ovarian
PC-3 prostate = tested on: PC-3 prostate
RPMI-8226 leukemia = tested on: RPMI-8226 leukemia
SF-268 CNS = tested on: SF-268 CNS
SF-295 CNS = tested on: SF-295 CNS
SF-539 CNS = tested on: SF-539 CNS
SK-MEL-2 melanoma = tested on: SK-MEL-2 melanoma
SK-MEL-28 melanoma = tested on: SK-MEL-28 melanoma
SK-MEL-5 melanoma = tested on: SK-MEL-5 melanoma
SK-OV-3 ovarian = tested on: SK-OV-3 ovarian
SN12C renal = tested on: SN12C renal
SNB-19 CNS = tested on: SNB-19 CNS
SNB-75 CNS = tested on: SNB-75 CNS
SR leukemia = tested on: SR leukemia
SW-620 colon = tested on: SW-620 colon
T-47D breast = tested on: T-47D breast
TK-10 renal = tested on: TK-10 renal
U251 CNS = tested on: U251 CNS
UACC-257 melanoma = tested on: UACC-257 melanoma
UACC-62 melanoma = tested on: UACC-62 melanoma
UO-31 renal = tested on: UO-31 renal
RXF 393 renal = tested on: RXF 393 renal
HOP-92 NSCLC = tested on: HOP-92 NSCLC

Measured: TGI

COC(=O)C1Cc2ccc(C)cc2C1=O (centres undefined)
not listed: RXF 393 renal | HOP-92 NSCLC
> 100 µM: all other assays above

CC(Cc1ccc(Cl)cc1Cl)NO (centres undefined)
not listed: HCC-2998 colon | HL-60(TB) leukemia | NCI-H460 lung | SF-539 CNS | HOP-92 NSCLC
> 100 µM: all other assays above

CCOC(=O)c1c(O)[nH]c(=O)c(CC)c1C
not listed: SR leukemia
> 100 µM: all other assays above
